Laboratory results taken from US11261186B2, “Biaryl derivative as GPR120 agonist” (LG CHEM, LTD., priority 2014, dated 2022).

Biological target: T1, hGPR120 (Homo sapiens, UniProt Q5NUL3)
T1 construct: expressed in transfected cells; host or cells: CHO-K1
T1 sequence (Q5NUL3 1-361): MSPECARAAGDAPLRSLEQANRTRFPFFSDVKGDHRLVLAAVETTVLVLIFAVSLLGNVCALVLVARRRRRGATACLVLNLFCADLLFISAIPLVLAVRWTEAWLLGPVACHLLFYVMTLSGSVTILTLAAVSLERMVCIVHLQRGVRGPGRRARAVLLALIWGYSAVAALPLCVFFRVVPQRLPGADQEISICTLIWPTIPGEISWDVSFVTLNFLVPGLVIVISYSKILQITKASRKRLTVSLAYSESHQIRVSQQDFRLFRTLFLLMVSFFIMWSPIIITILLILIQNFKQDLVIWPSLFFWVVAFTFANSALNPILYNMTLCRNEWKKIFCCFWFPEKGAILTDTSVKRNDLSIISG
Assay: Measurement of Activity of GPR120 Agonist (Cell-Based Assay), Calcium 5 dye fluorescence
Conditions: CHO-K1 cells expressing Ga16 and hGPR120
How it was run: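 CHO-K1 cells co-expressing Gα16 and hGPR120, plated 18 h, loaded 1 h at 37°C with Calcium 5 dye. Serially diluted agonists added at 0.5% DMSO final; fluorescence read at Ex 485/Em 525 nm and expressed as relative % of DMSO-only signal.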

Structure (SMILES) | EC50 [nM]
O=C(O)CCCCNc1c(F)cc(-c2cccnc2OC2CCCC2)cc1F [Example 94, 5-[4-[2-(cyclopentoxy)-3-pyridyl]-2,6-difluoro-anilino]pentanoic acid] | < 200
Cc1cc(OC2CCC2)nc(-c2cc(F)c(N3CC(CC(=O)O)C3)c(F)c2)n1 [Example 328, 2-[1-[4-[4-(cyclobutoxy)-6-methyl-pyrimidin-2-yl]-2,6-difluoro-phenyl]azetidin-3-yl]acetic acid] | 200 to 2000
O=C(O)CCCOc1c(F)cc(-c2cccc(OC3CCC3)c2)cc1F [Example 21, 4-(3′-cyclobutoxy-3,5-difluoro-biphenyl-4-yloxy)-butyric acid] | < 200
CC(C)Oc1cccc(-c2ccc3cc(CCC(=O)O)ccc3c2)c1 [Example 146, 3-[6-(3-isopropoxy-phenyl)-naphthalen-2-yl]-propanoic acid] | 200 to 2000
O=C(O)CC1CCN(c2c(F)cc(-c3cc(F)cc(OC4CCC4)c3)cc2F)CC1 [Example 306, 2-[1-[4-[3-(cyclobutoxy)-5-fluoro-phenyl]-2,6-difluoro-phenyl]-4-piperidyl]acetic acid] | 200 to 2000
O=C(O)CC1CCN(c2c(F)cc(-c3nccc(Oc4cccc(C(F)(F)F)c4)n3)cc2F)CC1 [Example 611, 2-[1-[2,6-difluoro-4-[4-[3-(trifluoromethyl)phenoxy]pyrimidin-2-yl]phenyl]-4-piperidyl]acetic acid] | 200 to 2000
O=C(O)C1CC1COc1c(F)cc(-c2cccc(OCC3CC3)n2)cc1F (stereo not shown) [Example 549, 2-[4-(6-cyclopropylmethoxy-pyridin-2-yl)-2,6-difluoro-phenoxymethyl]-cyclopropanecarboxylic acid] | < 200
O=C(O)CC1CCN(c2c(F)cc(-c3cncc(C4CCC4)n3)cc2F)CC1 [Example 374, 2-[1-[4-(6-cyclobutylpyrazin-2-yl)-2,6-difluoro-phenyl]-4-piperidyl]acetic acid] | < 200
CC(C)Sc1ncccc1-c1ccc(C(C)(C)CCCC(=O)O)cc1 [Example 159, 5-[4-(2-isopropylsulfanyl-pyridin-3-yl)-phenyl]-5-methyl-hexanoic acid] | < 200
O=C(O)CCC1CCc2cc(-c3cccc(OCC4CC4)n3)ccc2O1 (stereo not shown) [Example 445, 3-[6-[6-(cyclopropylmethoxy)-2-pyridyl]chroman-2-yl]propanoic acid] | < 200
Cc1ncc(-c2cc(F)c(N3CCC(CC(=O)O)CC3)c(F)c2)nc1OC1CCC1 [Example 361, 2-[1-[4-[6-(cyclobutoxy)-5-methyl-pyrazin-2-yl]-2,6-difluoro-phenyl]-4-piperidyl]acetic acid] | 200 to 2000
O=C(O)CCCOc1c(F)cc(-n2ncc3ccc(OC4CCC4)cc32)cc1F [Example 482, 4-[4-[6-(cyclobutoxy)indazol-1-yl]-2,6-difluoro-phenoxy]butanoic acid] | < 200
O=C(O)CC1CCN(c2c(F)cc(-c3cncc(N4CCCC4)n3)cc2F)CC1 [Example 353, 2-[1-[2,6-difluoro-4-(6-pyrrolidin-1-ylpyrazin-2-yl)phenyl]-4-piperidyl]acetic acid] | 2000 to 20000
CC(C)COc1nc(-c2cc(F)c(N3CCC(CC(=O)O)C3)c(F)c2)ncc1F (stereo not shown) [Example 594, {1-[2,6-difluoro-4-(5-fluoro-4-isobutoxy-pyrimidin-2-yl)-phenyl]-pyrrolidin-3-yl}-acetic acid] | 200 to 2000
O=C(O)CC1CCN(c2c(F)cc(-c3nccc(Oc4ccccn4)n3)cc2F)CC1 [Example 609, 2-[1-[2,6-difluoro-4-[4-(2-pyridyloxy)pyrimidin-2-yl]phenyl]-4-piperidyl]acetic acid] | 200 to 2000
O=C(O)CCc1ccc2cc(-c3cccc(Oc4ccccc4)n3)ccc2c1 [Example 141, 3-[6-(6-phenoxy-pyridin-2-yl)-naphthalen-2-yl]-propanoic acid] | < 200

Now from value to compound:

EC50 [nM] | Structure (SMILES)
2000 to 20000 | O=C(O)COc1ccc2cc(-c3cccnc3OC3CCCC3)ccc2c1 [Example 4, [6-(2-cyclopentyloxy-pyridin-3-yl)-naphthalen-2-yloxy]-acetic acid]
< 200 | O=C(O)CCCOc1ccc(-c2cccnc2OCC2CCC2)cc1F [Example 241, 4-[4-(2-cyclobutylmethoxy-pyridin-3-yl)-2-fluoro-phenoxy]-butyric acid]
< 200 | O=C(O)CCCOc1c(F)cc(-c2cccc(OCC3CC3)c2)cc1F [Example 20, 4-(3′-cyclopropylmethoxy-3,5-difluoro-biphenyl-4-yloxy)-butyric acid]
< 200 | CC(CCCC(=O)O)c1c(F)cc(-c2cccnc2SC2CCCC2)cc1F (stereo not shown) [Example 49, 5-[4-(2-cyclopentylsulfanyl-3-pyridyl)-2,6-difluoro-phenyl]hexanoic acid]
< 200 | CCCOc1cccc(-c2cc(F)c(OCCCC(=O)O)c(F)c2)c1 [Example 19, 4-(3,5-difluoro-3′-propoxy-biphenyl-4-yloxy)-butyric acid]
< 200 | O=C(O)CCCOc1c(F)cc(-c2cccc3c2OC2(CCCC2)O3)cc1F [Example 287, 4-(2,6-difluoro-4-spiro[1,3-benzodioxol-2,1′-cyclopentan]-4-yl-phenoxy)butanoic acid]
< 200 | O=C(O)CCCOc1c(F)cc(-c2cccc(OCC3CCC3)n2)cc1F [Example 523, 4-[4-(6-cyclobutylmethoxy-pyridin-2-yl)-2,6-difluoro-phenoxy]-butyric acid]
< 200 | O=C(O)CCC1CCc2cc(-c3cccnc3SC3CCC3)ccc2S1 (stereo not shown) [Example 275, 3-[6-(2-cyclobutylsulfanyl-pyridin-3-yl)-thiochroman-2-yl]-propionic acid]
< 200 | CCCCc1cncc(-c2cc(F)c(N3CCC(CC(=O)O)CC3)c(F)c2)n1 [Example 369, 2-[1-[4-(6-butylpyrazin-2-yl)-2,6-difluoro-phenyl]-4-piperidyl]acetic acid]
< 200 | CC1(C)Cc2cccc(-c3cc(F)c(OCCCC(=O)O)c(F)c3)c2O1 [Example 22, 4-[4-(2,2-dimethyl-2,3-dihydro-benzofuran-7-yl)-2,6-difluoro-phenoxy]-butyric acid]
< 200 | CN(CCCC(=O)O)c1c(F)cc(-c2cc(Cl)cc3c2OC(C)(C)C3)cc1F [Example 255, 4-{[4-(5-chloro-2,2-dimethyl-2,3-dihydro-benzofuran-7-yl)-2,6-difluoro-phenyl]-methyl-amino}-butyric acid]
200 to 2000 | CC(C)Cc1ccnc(-c2cc(F)c(N3CCC(CC(=O)O)CC3)c(F)c2)n1 [Example 365, 2-[1-[2,6-difluoro-4-(4-isobutylpyrimidin-2-yl)phenyl]-4-piperidyl]acetic acid]
< 200 | CC(CCCC(=O)O)c1c(F)cc(-c2cccnc2OCC2CC2)cc1F (stereo not shown) [Example 60, 5-[4-(2-cyclopropylmethoxy-3-pyridyl)-2,6-difluoro-phenyl]hexanoic acid]
< 200 | CN(CCCC(=O)O)c1c(F)cc(-c2cccc(OCC3CCC3)n2)cc1F [Example 522, 4-{[4-(6-cyclobutylmethoxy-pyridin-2-yl)-2,6-difluoro-phenyl]-methyl-amino}-butyric acid]
200 to 2000 | O=C(O)CCC1CCN(c2c(F)cc(-c3cccc(C4CCC4)n3)cc2F)CC1 [Example 621, 3-{1-[4-(6-cyclobutyl-pyridin-2-yl)-2,6-difluoro-phenyl]-piperidin-4-yl}-propionic acid]
200 to 2000 | O=C(O)CCCn1ccc2cc(-c3cccnc3SC3CCCC3)ccc21 [Example 200, 4-[5-(2-cyclopentylsulfanyl-pyridin-3-yl)-indol-1-yl]-butyric acid]
< 200 | O=C(O)CCCC1(c2c(F)cc(-c3cccc(OCC4CC4)n3)cc2F)CC1 [Example 170, 4-{1-[4-(6-cyclopropylmethoxy-pyridin-2-yl)-2,6-difluoro-phenyl]-cyclopropyl}-butyric acid]
< 200 | CC(CCCCC(=O)O)c1c(F)cc(-c2cccnc2OC2CCCC2)cc1F (stereo not shown) [Example 237, 6-[4-(2-cyclopentyloxy-pyridin-3-yl)-2,6-difluoro-phenyl]-heptanoic acid]
< 200 | O=C(O)CCCCc1c(F)cc(-c2cccc3c2OC(F)(F)O3)cc1F [Example 34, 5-[4-(2,2-difluoro-benzo[1,3]dioxol-4-yl)-2,6-difluoro-phenyl]pentanoic acid]
< 200 | CC(CCCC(=O)O)c1c(F)cc(-c2cccnc2OC2CCOCC2)cc1F (stereo not shown) [Example 231, 5-{2,6-difluoro-4-[2-(tetrahydro-pyran-4-yloxy)-pyridin-3-yl]-phenyl}-hexanoic acid]
< 200 | CC(CCCCC(=O)O)c1c(F)cc(-c2cccnc2SC2CCCC2)cc1F (stereo not shown) [Example 238, 6-[4-(2-cyclopentylsulfanyl-pyridin-3-yl)-2,6-difluoro-phenyl]-heptanoic acid]
> 20000 | Cc1onc(COCC2CC2)c1-c1cc(F)c(OCCCC(=O)O)c(F)c1 [Example 390, 4-[4-[3-(cyclopropylmethoxymethyl)-5-methyl-isoxazol-4-yl]-2,6-difluoro-phenoxy]butanoic acid]
< 200 | COc1ccc(-c2cc(F)c(C(C)CCCC(=O)O)c(F)c2)cc1OCC1CC1 (stereo not shown) [Example 412, 5-(3′-cyclopropylmethoxy-3,5-difluoro-4′-methoxy-biphenyl-4-yl)-hexanoic acid]
< 200 | CN(CCCC(=O)O)c1c(F)cc(-c2cccnc2SC2CCCC2)cc1F [Example 197, 4-{[4-(2-cyclopentylsulfanyl-pyridin-3-yl)-2,6-difluoro-phenyl]-methyl-amino}-butyric acid]
